Assay results from patent publication US20250282746A1, “HALOGEN-SUBSTITUTED ISOINDOLINE COMPOUND AND USE THEREOF” (CHENGDU FENDI PHARMACEUTICAL CO., LTD., priority 2022, published 2025).
pIC50: −log10 of the molar value.

Assays:
Assay type in all cases: cell-based
NCI-H929 cells [1] = experiment: Antiproliferative effect alone and in combination with dexamethasone against NCI-H929 cells; settings: 72 h, read-out: IC50
Method: MOLM-13 cells in the logarithmic growth phase were diluted in a medium RPMI+[…], and NCI-H929 cells were diluted in a medium RPMI+10% FBS. The cells were plated at 4,000 cells/well in 96-well whole black plates (WHB) with 50 μL/well. After plating, the plates were incubated in an incubator at 5% CO2 and 37° C. for 24 h before the compounds were added. The compounds were prepared into a 10 mM stock solution in DMSO and diluted in a culture medium to the desired concentrations (a final DMSO concentration of 0.2%). 50 μL of the compound dilutions at final concentrations of 10,000, 3,333.33, 1,111.11, 370.37, 123.46, 41.15, 13.72, 4.57, 1.52, and 0 nM were added to the 96-well plates containing the cells, that is, each compound was serially diluted to 10 concentrations in duplicate. The plates were incubated at 5% CO2 and 37° C. for 72 h. When pharmaceutical partners were used, the concentrations of azacitidine and dexamethasone were kept at 200 nM and 500 nM respectively, and the compounds were serially three-fold diluted from 10,000 nM. After the incubation was complete, the plates were equilibrated at room temperature for 30 min. CellTiter-Glo® Reagent (Promega G7573) was added at 100 μL/well. The plates were shaken for 12 min on a microplate shaker. The luminescence value was measured at room temperature by the GloMax navigator (Promega GM2010). The IC50 values were calculated using the GraphPad Prism 7 software with the 0 nM control group as 0% inhibition.

GSPT1 protein = biological target: T1, GSPT1 protein (Homo sapiens, UniProt P15170); experiment: Degradation of GSPT1 protein in NB-4 cells (Western blot); settings: NB-4 cells, compound 1 μM, 6 h; read-out: GSPT1 degradation
T1 construct: The whole cell lysate was prepared using a RIPA lysis buffer; endogenous in cells; host or cells: NB-4 cells
Summary of the method: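 GSPT1 levels were read by Western blot (4-20% SDS-PAGE, PVDF, overnight primary antibody at 4 °C) on lysates of NB-4 cells.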

MOLM-13 cells = experiment: Antiproliferative activity against various tumor cells: MOLM-13; settings: Homo sapiens; MOLM-13 cells, 72 h; read-out: Antiproliferative activity IC50 MOLM-13
Method: (§1) U937, NCI-H929, AML-2, and MOLM-13 cells in the logarithmic growth phase were diluted in media RPMI+10% FBS, RPMI+10% FBS, MEMα+20% FBS, RPMI+20% FBS, respectively, and plated at 4,000 cells/well in 96-well whole black plates (WHB) with 50 μL/well. After plating, the plates were incubated in an incubator at 5% CO2 and 37° C. for 24 h before the compounds were added. The compounds were prepared into a 10 mM stock solution in DMSO and diluted in a culture medium to the desired concentrations (a final DMSO concentration of 0.2%). […] The plates were incubated at 5% CO2 and 37° C. for 72 h. After the incubation was complete, the plates were equilibrated at room temperature for 30 min. CellTiter-Glo® Reagent (Promega G7573) was added at 100 μL/well. The plates were shaken for 12 min on a microplate shaker. The luminescence value was measured at room temperature by the GloMax navigator (Promega GM2010).

U937 cells = experiment: Antiproliferative activity against various tumor cells: U937; settings: Homo sapiens, U-937; U937 cells, 72 h; read-out: Antiproliferative activity IC50 U937
Method: as §1

NCI-H929 cells [2] = experiment: Antiproliferative activity against various tumor cells: NCI-H929; settings: Homo sapiens; NCI-H929 cells, 72 h; read-out: Antiproliferative activity IC50 NCI-H929
Method: as §1

AML-2 cells = experiment: Antiproliferative activity against various tumor cells: AML-2; settings: AML-2 cells, 72 h; read-out: Antiproliferative activity IC50 AML-2
Method: as §1

MV-4-11 cells = experiment: Antiproliferative activity against MV-4-11 cells (CellTiter-Glo, 72 h); settings: Homo sapiens, MV4-11; MV-4-11 cells, 72 h; read-out: Antiproliferative activity IC50
Summary of the method: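 MV-4-11 cells in RPMI + 10% FBS plated at 5,000 cells/well and pre-incubated 24 h at 37 °C, 5% CO2. Compounds were then added (final DMSO 0.2%) and cells incubated 72 h. Viability was read by CellTiter-Glo luminescence after 30 min equilibration at room temperature.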

[3] = in combination with 500 nM dexamethasone

T1 sequence (P15170 whole entry): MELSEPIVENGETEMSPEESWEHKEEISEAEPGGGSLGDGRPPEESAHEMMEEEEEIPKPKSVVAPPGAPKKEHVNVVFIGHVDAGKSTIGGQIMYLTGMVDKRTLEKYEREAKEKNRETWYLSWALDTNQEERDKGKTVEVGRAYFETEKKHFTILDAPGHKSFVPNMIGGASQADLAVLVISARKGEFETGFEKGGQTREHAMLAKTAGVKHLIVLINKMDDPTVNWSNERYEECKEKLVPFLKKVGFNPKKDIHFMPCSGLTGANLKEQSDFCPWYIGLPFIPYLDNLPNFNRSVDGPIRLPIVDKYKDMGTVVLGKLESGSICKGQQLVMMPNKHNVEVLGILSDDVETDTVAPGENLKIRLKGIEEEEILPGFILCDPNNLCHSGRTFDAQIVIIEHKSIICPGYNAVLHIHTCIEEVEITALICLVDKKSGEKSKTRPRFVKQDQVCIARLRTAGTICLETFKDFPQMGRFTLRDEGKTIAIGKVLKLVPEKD

pIC50 (NCI-H929 cells [1]; [3])	pIC50 (NCI-H929 cells [1]; Homo sapiens, compound alone)	inhibition at 1 µM (GSPT1 protein)	pIC50 (MOLM-13 cells)	pIC50 (U937 cells)	pIC50 (NCI-H929 cells [2])	pIC50 (AML-2 cells)	pIC50 (MV-4-11 cells)	SMILES
7.65	6.61	–	–	–	–	–	–	Nc1cccc2c1C(=O)N(C1CCC(=O)NC1=O)C2=O (centres unmarked) [Pomalidomide]
–	–	> 80%	> 9.00	> 9.00	> 9.00	8.00 to 9.00	> 9.00	O=C1CCC(N2Cc3c(ccc(CNC(=O)c4ccc(C(=O)c5ccccc5)cc4)c3F)C2=O)C(=O)N1 (centres unmarked) [FDAB-100]
–	–	50 to 80%	7.00 to 8.00	7.00 to 8.00	8.00 to 9.00	7.00 to 8.00	8.00 to 9.00	O=C1CCC(N2Cc3c(ccc(CNC(=O)c4cc5cc(Cl)ccc5o4)c3Cl)C2=O)C(=O)N1 (centres unmarked) [FDAB-68]
–	–	< 25%	–	–	–	–	< 6.00	CS(=O)(=O)c1ccc(C(=O)NCc2ccc3c(c2F)CN(C2CCC(=O)NC2=O)C3=O)cc1 (centres unmarked) [FDAB-107]
–	–	> 80%	–	–	–	–	7.00 to 8.00	COc1ccc(C(=O)NCc2ccc3c(c2F)CN(C2CCC(=O)NC2=O)C3=O)cc1 (centres unmarked) [FDAB-85]
–	–	< 25%	–	–	–	–	< 6.00	COc1cc(C)ccc1C(=O)NCc1ccc2c(c1F)CN(C1CCC(=O)NC1=O)C2=O (centres unmarked) [FDAB-104]
–	–	< 25%	–	–	–	–	< 6.00	O=C1CCC(N2Cc3cc(CNC(=O)C4CC4)c(F)cc3C2=O)C(=O)N1 (centres unmarked) [FDAB-40]
–	–	< 25%	–	–	–	–	< 6.00	CS(=O)(=O)c1ccc(C(=O)NCc2ccc3c(c2F)CN(C2CCC(=O)NC2=O)C3=O)c(N)c1 (centres unmarked) [FDAB-114]
–	–	< 25%	–	–	–	–	< 6.00	O=C1CCC(N2Cc3cc(CNC(=O)C4CCCC4)c(F)cc3C2=O)C(=O)N1 (centres unmarked) [FDAB-41]
–	–	< 25%	–	–	–	–	< 6.00	CCOC(=O)CN1C(=O)CCC(N2Cc3c(ccc(CNC(=O)c4ccc(Cl)cc4)c3F)C2=O)C1=O (centres unmarked) [FDAB-126]
–	–	< 25%	–	–	–	–	< 6.00	O=C1CCC(N2Cc3cc(CNC(=O)c4ccccc4)c(F)cc3C2=O)C(=O)N1 (centres unmarked) [FDAB-25]
–	–	> 80%	–	–	–	–	> 9.00	O=C1CCC(N2Cc3c(ccc(CNC(=O)c4ccc(Oc5ccccc5)cc4)c3F)C2=O)C(=O)N1 (centres unmarked) [FDAB-101]
–	–	< 25%	–	–	–	–	< 6.00	O=C1CCC(N2Cc3cc(CNC(=O)c4ccc(Cl)cn4)c(F)cc3C2=O)C(=O)N1 (centres unmarked) [FDAB-56]
–	–	> 80%	–	–	–	–	8.00 to 9.00	O=C1CCC(N2Cc3c(ccc(CNC(=O)c4ccc5c(c4)CC5)c3F)C2=O)C(=O)N1 (centres unmarked) [FDAB-98]

The next lines start with the compound.

SMILES	pIC50 (NCI-H929 cells [1]; [3])	pIC50 (NCI-H929 cells [1]; Homo sapiens, compound alone)	inhibition at 1 µM (GSPT1 protein)	pIC50 (MOLM-13 cells)	pIC50 (U937 cells)	pIC50 (NCI-H929 cells [2])	pIC50 (AML-2 cells)	pIC50 (MV-4-11 cells)
Nc1cccc2c1CN(C1CCC(=O)NC1=O)C2=O (centres unmarked) [Lenalidomide]	6.11	5.66	–	–	–	–	–	–
O=C(CCc1cccc(F)c1)NCc1ccc2c(c1F)CN(C1CCC(=O)NC1=O)C2=O (centres unmarked) [FDAB-137]	–	–	> 80%	8.00 to 9.00	8.00 to 9.00	8.00 to 9.00	8.00 to 9.00	8.00 to 9.00
O=C1CCC(N2Cc3c(ccc(CNC(=O)C(F)(F)c4ccc(Cl)cc4)c3F)C2=O)C(=O)N1 (centres unmarked) [FDAB-124]	–	–	> 80%	7.00 to 8.00	7.00 to 8.00	6.00 to 7.00	7.00 to 8.00	7.00 to 8.00
C[C@@H]1C[C@H]2[C@@H]3CCC4=CC(=O)C=C[C@]4(C)[C@@]3(F)[C@@H](O)C[C@]2(C)[C@@]1(O)C(=O)CO [Dexamethasone]	–	< 5.00	–	–	–	–	–	–
O=C1CCC(N2Cc3c(ccc(CNC(=O)C4CC5(CCC5)C4)c3F)C2=O)C(=O)N1 (centres unmarked) [FDAB-156]	–	–	> 80%	7.00 to 8.00	8.00 to 9.00	8.00 to 9.00	7.00 to 8.00	8.00 to 9.00
O=C(C#Cc1ccccc1)NCc1ccc2c(c1F)CN(C1CCC(=O)NC1=O)C2=O (centres unmarked) [FDAB-144]	–	–	> 80%	> 9.00	8.00 to 9.00	> 9.00	8.00 to 9.00	> 9.00
Cc1cc(C(=O)NCc2ccc3c(c2F)CN(C2CCC(=O)NC2=O)C3=O)cc(C)c1C (centres unmarked) [FDAB-92]	–	–	> 80%	8.00 to 9.00	8.00 to 9.00	7.00 to 8.00	8.00 to 9.00	8.00 to 9.00
O=C(/C=C/c1ccc(Cl)cc1)NCc1ccc2c(c1F)CN(C1CCC(=O)NC1=O)C2=O (centres unmarked) [FDAB-142]	–	–	> 80%	> 9.00	8.00 to 9.00	> 9.00	8.00 to 9.00	> 9.00
O=C(C#Cc1ccc(-c2ccccc2)cc1)NCc1ccc2c(c1F)CN(C1CCC(=O)NC1=O)C2=O (centres unmarked) [FDAB-147]	–	–	> 80%	> 9.00	> 9.00	> 9.00	> 9.00	> 9.00
O=C1CCC(N2Cc3c(ccc(CNC(=O)c4ccccc4)c3F)C2=O)C(=O)N1 (centres unmarked) [FDAB-81]	–	–	< 25%	–	–	–	–	< 6.00
CC(C)(C)OC(=O)NCc1cc2c(cc1Cl)C(=O)N(C1CCC(=O)NC1=O)C2 (centres unmarked) [FDAB-14]	–	–	< 25%	–	–	–	–	< 6.00
O=C1CCC(N2Cc3cc(CNC(=O)c4nc5ccccc5[nH]4)c(F)cc3C2=O)C(=O)N1 (centres unmarked) [FDAB-33]	–	–	< 25%	–	–	–	–	< 6.00
O=C1CCC(N2Cc3cc(CNC(=O)c4cc5cc(F)ccc5o4)c(Cl)cc3C2=O)C(=O)N1 (centres unmarked) [FDAB-73]	–	–	< 25%	–	–	–	–	< 6.00
Cc1ccc(C(=O)NCc2ccc3c(c2Cl)CN(C2CCC(=O)NC2=O)C3=O)cc1 (centres unmarked) [FDAB-76]	–	–	< 25%	–	–	–	–	< 6.00
O=C1CCC(N2Cc3c(ccc(CNC(=O)c4ccc(Cl)c(O)c4)c3F)C2=O)C(=O)N1 (centres unmarked) [FDAB-83]	–	–	> 80%	–	–	–	–	7.00 to 8.00
O=C1CCC(N2Cc3c(ccc(CNC(=O)c4ccc(F)cc4)c3Cl)C2=O)C(=O)N1 (centres unmarked) [FDAB-77]	–	–	< 25%	–	–	–	–	< 6.00
CC(C)(C)c1ccc(C(=O)NCc2ccc3c(c2F)CN(C2CCC(=O)NC2=O)C3=O)cc1 (centres unmarked) [FDAB-94]	–	–	> 80%	> 9.00	> 9.00	8.00 to 9.00	> 9.00	> 9.00
C=Cc1ccc(C(=O)NCc2ccc3c(c2F)CN(C2CCC(=O)NC2=O)C3=O)cc1 (centres unmarked) [FDAB-95]	–	–	> 80%	–	–	–	–	8.00 to 9.00
O=C(Cc1cccc(-c2ccccc2)c1)NCc1ccc2c(c1F)CN(C1CCC(=O)NC1=O)C2=O (centres unmarked) [FDAB-133]	–	–	> 80%	–	–	–	–	> 9.00
Nc1cccc(C(=O)NCc2cc3c(cc2F)C(=O)N(C2CCC(=O)NC2=O)C3)c1 (centres unmarked) [FDAB-34]	–	–	< 25%	–	–	–	–	< 6.00
CC(C)(C)Oc1ccc(C(=O)NCc2ccc3c(c2F)CN(C2CCC(=O)NC2=O)C3=O)cc1 (centres unmarked) [FDAB-103]	–	–	> 80%	–	–	–	–	> 9.00
N#Cc1cc(C(=O)NCc2cc3c(cc2F)C(=O)N(C2CCC(=O)NC2=O)C3)ccc1Cl (centres unmarked) [FDAB-54]	–	–	50 to 80%	–	–	–	–	7.00 to 8.00
O=C(CCCc1ccc(I)cc1)NCc1ccc2c(c1F)CN(C1CCC(=O)NC1=O)C2=O (centres unmarked) [FDAB-139]	–	–	> 80%	–	–	–	–	8.00 to 9.00
